In ChEMBL document CHEMBL5046255, “Design and synthesis of dual inhibitors targeting snail and histone deacetylase for the treatment of solid tumour cancer” (Eur J Med Chem, 2022):
Active and inactive are the calls of the source. The rule behind the calls is not given here.

Columns and labels:
[1] = test system: LOX IMVI; test: Antiproliferative activity against human LOX IMVI cells assessed as growth inhibition incubated for 72 hrs by luminescence assay; format: functional
[2] = test system: OVCAR-4; test: Antiproliferative activity against human OVCAR-4 cells assessed as growth inhibition incubated for 72 hrs by luminescence assay; format: functional
[3] = test system: A498; test: Antiproliferative activity against human A498 cells assessed as growth inhibition incubated for 72 hrs by luminescence assay; format: functional
[4] = test system: IGROV-1; test: Antiproliferative activity against human IGROV-1 cells assessed as growth inhibition incubated for 72 hrs by luminescence assay; format: functional
[5] = Metabolic stability in human liver microsomes assessed as intrinsic clearance incubated for 10 mins by LC-MS/MS analysis; format: ADME, Microsome; settings: read-out: CLH
[6] = Half life in Sprague-Dawley rat at 1 mg/kg, iv measured up to 24 hrs by LC-MS/MS analysis; format: ADME, organism-based; settings: in vivo
[7] = test system: SK-OV-3; test: Antiproliferative activity against human SK-OV-3 cells assessed as growth inhibition incubated for 72 hrs by luminescence assay; format: functional
[8] = target: Histone deacetylase 4 (Homo sapiens, UniProt P56524); test: Inhibition of HDAC4 (unknown origin) using Boc-Lys(TFA)-AMC as fluorogenic substrate incubated for 30 mins by fluorescence based assay
Histone deacetylase 4, sequence (P56524 whole entry, the tested form may be a part): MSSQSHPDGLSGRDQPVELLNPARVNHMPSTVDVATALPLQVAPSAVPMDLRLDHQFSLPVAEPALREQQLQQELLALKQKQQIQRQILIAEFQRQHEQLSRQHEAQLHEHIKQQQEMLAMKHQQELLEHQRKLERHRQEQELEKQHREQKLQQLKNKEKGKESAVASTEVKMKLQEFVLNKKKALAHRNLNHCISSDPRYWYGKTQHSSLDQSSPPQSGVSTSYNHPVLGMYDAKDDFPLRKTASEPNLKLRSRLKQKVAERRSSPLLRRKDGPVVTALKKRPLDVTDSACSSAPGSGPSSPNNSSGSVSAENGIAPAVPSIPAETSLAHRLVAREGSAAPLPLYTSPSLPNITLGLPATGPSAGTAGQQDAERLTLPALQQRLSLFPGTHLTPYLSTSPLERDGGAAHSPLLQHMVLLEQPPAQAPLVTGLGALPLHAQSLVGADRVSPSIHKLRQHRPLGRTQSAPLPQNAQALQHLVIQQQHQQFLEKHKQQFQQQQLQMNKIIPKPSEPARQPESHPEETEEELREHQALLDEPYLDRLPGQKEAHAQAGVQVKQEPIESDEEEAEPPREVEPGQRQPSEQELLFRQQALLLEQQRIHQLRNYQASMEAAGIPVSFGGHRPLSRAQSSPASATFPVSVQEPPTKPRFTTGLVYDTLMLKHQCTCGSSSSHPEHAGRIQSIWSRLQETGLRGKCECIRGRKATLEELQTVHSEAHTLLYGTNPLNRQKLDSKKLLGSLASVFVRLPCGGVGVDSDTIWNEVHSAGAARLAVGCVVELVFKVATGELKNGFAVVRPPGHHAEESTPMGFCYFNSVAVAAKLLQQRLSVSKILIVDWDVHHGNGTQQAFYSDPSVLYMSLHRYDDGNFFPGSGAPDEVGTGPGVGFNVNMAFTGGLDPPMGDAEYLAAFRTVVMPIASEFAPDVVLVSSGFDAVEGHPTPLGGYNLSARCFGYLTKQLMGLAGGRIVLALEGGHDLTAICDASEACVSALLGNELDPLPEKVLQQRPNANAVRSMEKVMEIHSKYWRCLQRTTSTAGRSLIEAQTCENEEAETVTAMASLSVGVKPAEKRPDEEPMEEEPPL

[9] = target: Histone deacetylase 8 (Homo sapiens, UniProt Q9BY41); test: Inhibition of HDAC8 (unknown origin) using p53 (379 to 382 residues) (RHKK(Ac-AMC) as fluorogenic substrate incubated for 2 hrs by fluorescence based assay
Histone deacetylase 8, sequence (Q9BY41 whole entry, the tested form may be a part): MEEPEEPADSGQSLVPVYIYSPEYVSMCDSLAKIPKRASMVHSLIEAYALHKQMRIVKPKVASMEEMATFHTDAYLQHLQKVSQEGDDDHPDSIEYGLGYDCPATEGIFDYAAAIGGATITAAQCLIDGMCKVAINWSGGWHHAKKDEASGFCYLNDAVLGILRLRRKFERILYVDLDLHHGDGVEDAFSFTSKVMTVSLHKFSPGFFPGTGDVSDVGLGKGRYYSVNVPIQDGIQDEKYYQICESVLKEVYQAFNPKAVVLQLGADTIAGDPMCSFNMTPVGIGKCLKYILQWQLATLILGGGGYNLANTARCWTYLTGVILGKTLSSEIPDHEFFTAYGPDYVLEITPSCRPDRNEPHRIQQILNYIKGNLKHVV

[10] = Metabolic stability in dog liver microsomes assessed as intrinsic clearance incubated for 10 mins by LC-MS/MS analysis; format: ADME, Canis lupus familiaris, Microsome; settings: read-out: CLH
[11] = test system: HCC 2998; test: Antiproliferative activity against human HCC 2998 cells assessed as growth inhibition incubated for 72 hrs by luminescence assay; format: functional
[12] = test system: PC-3; test: Antiproliferative activity against human PC-3 cells assessed as growth inhibition incubated for 72 hrs by luminescence assay; format: functional
[13] = test system: SNB-75; test: Antiproliferative activity against human SNB-75 cells assessed as growth inhibition incubated for 72 hrs by luminescence assay; format: functional
[14] = Metabolic stability in monkey liver microsomes assessed as intrinsic clearance incubated for 10 mins by LC-MS/MS analysis; format: ADME, Macaca mulatta, Microsome; settings: rhesus monkey, read-out: CLH
[15] = test system: CCRF-CEM; test: Antiproliferative activity against human CCRF-CEM cells assessed as growth inhibition incubated for 72 hrs by luminescence assay; format: functional
[16] = test system: SR; test: Antiproliferative activity against human SR cells assessed as growth inhibition incubated for 72 hrs by luminescence assay; format: functional
[17] = test system: SK-MEL-5; test: Antiproliferative activity against human SK-MEL-5 cells assessed as growth inhibition incubated for 72 hrs by luminescence assay; format: functional
[18] = test system: A549; test: Antiproliferative activity against human A549 cells assessed as growth inhibition incubated for 72 hrs by luminescence assay; format: functional
[19] = test system: UACC-62; test: Antiproliferative activity against human UACC-62 cells assessed as growth inhibition incubated for 72 hrs by luminescence assay; format: functional
[20] = test system: HCT-116; test: Effect on SNAI1 protein expression in human HCT-116 cells at 75 nM measured after 24 hrs by western blot analysis; format: functional, cell-based
[21] = target: Histone deacetylase 11 (Homo sapiens, UniProt Q96DB2); test: Inhibition of HDAC11 (unknown origin) using Boc-Lys(TFA)-AMC as fluorogenic substrate incubated for 30 mins by fluorescence based assay
Histone deacetylase 11, sequence (Q96DB2 whole entry): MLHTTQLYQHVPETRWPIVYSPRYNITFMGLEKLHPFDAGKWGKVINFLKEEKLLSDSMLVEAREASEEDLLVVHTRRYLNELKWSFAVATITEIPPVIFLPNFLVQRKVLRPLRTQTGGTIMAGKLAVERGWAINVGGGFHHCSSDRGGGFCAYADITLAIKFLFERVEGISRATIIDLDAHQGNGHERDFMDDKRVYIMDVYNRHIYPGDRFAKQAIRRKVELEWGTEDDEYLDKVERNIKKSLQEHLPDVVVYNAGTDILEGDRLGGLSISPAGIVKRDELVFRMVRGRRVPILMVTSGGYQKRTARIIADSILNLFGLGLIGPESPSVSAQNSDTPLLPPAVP

[22] = test system: SK-MEL-28; test: Antiproliferative activity against human SK-MEL-28 cells assessed as growth inhibition incubated for 72 hrs by luminescence assay; format: functional
[23] = test system: SN12C; test: Antiproliferative activity against human SN12C cells assessed as growth inhibition incubated for 72 hrs by luminescence assay; format: functional
[24] = Volume of distribution at steady state in Sprague-Dawley rat at 1 mg/kg, iv measured up to 24 hrs by LC-MS/MS analysis; format: ADME, organism-based; settings: in vivo, read-out: Vdss
[25] = test system: MDA-MB-231; test: Antiproliferative activity against human MDA-MB-231 cells assessed as growth inhibition incubated for 72 hrs by luminescence assay; format: functional
[26] = test system: ACHN; test: Antiproliferative activity against human ACHN cells assessed as growth inhibition incubated for 72 hrs by luminescence assay; format: functional
[27] = test system: NCI/ADR-RES; test: Antiproliferative activity against human NCI/ADR-RES cells assessed as growth inhibition incubated for 72 hrs by luminescence assay; format: functional
[28] = AUC (0 to t) in Sprague-Dawley rat at 1 mg/kg, iv measured up to 24 hrs by LC-MS/MS analysis; format: ADME, organism-based; set-up: route intravenous, dose 1 mg/kg, time <=24; settings: in vivo
[29] = test system: RXF 393; test: Antiproliferative activity against human RXF 393 cells assessed as growth inhibition incubated for 72 hrs by luminescence assay; format: functional
[30] = test system: U-251; test: Antiproliferative activity against human U-251 cells assessed as growth inhibition incubated for 72 hrs by luminescence assay; format: functional
[31] = Cmax in Sprague-Dawley rat at 1 mg/kg, iv measured up to 24 hrs by LC-MS/MS analysis; format: ADME, organism-based; set-up: route intravenous, dose 1 mg/kg, time <=24; settings: in vivo
[32] = test system: HT-29; test: Antiproliferative activity against human HT-29 cells assessed as growth inhibition incubated for 72 hrs by luminescence assay; format: functional
[33] = test system: SF-268; test: Antiproliferative activity against human SF-268 cells assessed as growth inhibition incubated for 72 hrs by luminescence assay; format: functional
[34] = test system: MOLT-4; test: Antiproliferative activity against human MOLT-4 cells assessed as growth inhibition incubated for 72 hrs by luminescence assay; format: functional
[35] = test system: EKVX; test: Antiproliferative activity against human EKVX cells assessed as growth inhibition incubated for 72 hrs by luminescence assay; format: functional
[36] = Metabolic stability in dog liver microsomes assessed as half life incubated for 10 mins by LC-MS/MS analysis; format: ADME, Canis lupus familiaris, Microsome
[37] = test system: RPMI-8226; test: Antiproliferative activity against human RPMI-8226 cells assessed as growth inhibition incubated for 72 hrs by luminescence assay; format: functional
[38] = test system: HCT-116; test: Antiproliferative activity against human HCT-116 cells assessed as cell viability at 1 uM incubated for 72 hrs by luminescence assay; format: functional, cell-based; settings: HCT-116, 72 h
[39] = test system: SF-295; test: Antiproliferative activity against human SF-295 cells assessed as growth inhibition incubated for 72 hrs by luminescence assay; format: functional
[40] = test system: SK-MEL-2; test: Antiproliferative activity against human SK-MEL-2 cells assessed as growth inhibition incubated for 72 hrs by luminescence assay; format: functional
[41] = target: Histone deacetylase 1 (Homo sapiens, UniProt Q13547); test: Inhibition of HDAC1 (unknown origin) using p53 (379 to 382 residues) (RHKK(Ac-AMC) as fluorogenic substrate incubated for 1 hrs by fluorescence based assay
Histone deacetylase 1, sequence (Q13547 whole entry, the tested form may be a part): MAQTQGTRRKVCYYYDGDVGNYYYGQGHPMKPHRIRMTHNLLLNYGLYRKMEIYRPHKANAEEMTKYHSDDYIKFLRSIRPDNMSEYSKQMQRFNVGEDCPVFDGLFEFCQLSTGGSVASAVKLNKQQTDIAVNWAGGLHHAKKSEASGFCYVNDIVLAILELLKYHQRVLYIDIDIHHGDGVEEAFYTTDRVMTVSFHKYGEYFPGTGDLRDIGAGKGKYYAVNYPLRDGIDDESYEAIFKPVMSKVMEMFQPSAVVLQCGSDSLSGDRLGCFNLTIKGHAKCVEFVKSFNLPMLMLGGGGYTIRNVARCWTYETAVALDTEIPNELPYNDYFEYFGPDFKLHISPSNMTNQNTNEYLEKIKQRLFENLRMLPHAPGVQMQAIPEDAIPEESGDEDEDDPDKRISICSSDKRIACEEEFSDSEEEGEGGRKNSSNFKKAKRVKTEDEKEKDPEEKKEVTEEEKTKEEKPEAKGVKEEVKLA

[42] = test system: HOP-92; test: Antiproliferative activity against human HOP-92 cells assessed as growth inhibition incubated for 72 hrs by luminescence assay; format: functional
[43] = test system: HCT-116; test: Antiproliferative activity against human HCT-116 cells assessed as growth inhibition incubated for 72 hrs by luminescence assay; format: functional
[44] = Metabolic stability in monkey plasma assessed as half life at 100 uM measured upto 120 mins by LC-MS/MS analysis; format: ADME, cell-free, Macaca mulatta; settings: rhesus monkey

- GI50 [2]: 1660 nM
- microsomal CLint [5]: 20.9 µL/min/mg
- t1/2 [6]: 18.2 min
- GI50 [7]: 339 nM
- IC50 [8]: > 10000 nM
- IC50 [9]: > 10000 nM
- microsomal CLint [10]: 26.6 µL/min/mg
- GI50 [11]: 677 nM
- GI50 [12]: 355 nM
- microsomal CLint [14]: 50.3 µL/min/mg
- GI50 [15]: 411 nM
- GI50 [17]: 334 nM
- GI50 [18]: 886 nM
- IC50 [21]: > 10000 nM
- GI50 [22]: 2830 nM
- Vd [24]: 1.06 L/kg
- GI50 [25]: 854 nM
- GI50 [26]: 1240 nM
- AUCt [28]: 715 ng·h/mL
- GI50 [30]: 343 nM
- Cmax [31]: 144 ng/mL
- GI50 [32]: 322 nM
- GI50 [34]: 508 nM
- half-life [36]: 52.1 min
- GI50 [37]: 514 nM
- IC50 [38]: 75.1 nM
- GI50 [40]: 617 nM
- IC50 [41]: 405 nM
- GI50 [43]: 494 nM
- half-life at 100 µM [44]: 330 min
SMILES: Cc1cc(Nc2nc(SCc3ccc(C(=O)Nc4ccc(F)cc4N)cc3)nn3cccc23)n[nH]1
- GI50 [1]: 665 nM
- GI50 [3]: 623 nM
- GI50 [4]: 558 nM
- GI50 [13]: 198 nM
- GI50 [16]: 68 nM
- GI50 [19]: 347 nM
- Activity [20]: Active
- GI50 [23]: 1250 nM
- GI50 [27]: 1980 nM
- GI50 [29]: 301 nM
- GI50 [33]: 1120 nM
- GI50 [35]: 919 nM
- GI50 [39]: 354 nM
- GI50 [42]: 3680 nM
